Measured values reported in DBAASP.
≈ marks a conversion by molar mass, not a printed value.

Legend:
Assay in all cases: ≥ marks a high value that may be exact or a test limit, other limits are often not marked, values filed in µg/mL are converted to µM
[1] = tested on: Candida albicans ATCC 36232
[2] = tested on: Staphylococcus aureus ATCC 6538
[3] = tested on: Corynebacterium diphtheriae ATCC 8024
[4] = tested on: Staphylococcus epidermidis ATCC 12228
[5] = tested on: Micrococcus luteus ATCC 9341
[6] = tested on: Shigella flexneri ATCC 203
[7] = tested on: Pseudomonas aeruginosa ATCC 9027
Staphylococcus aureus = tested on: Staphylococcus aureus
[8] = tested on: Escherichia coli ATCC 2592
[9] = tested on: Bacillus subtilis ATCC 6633
[10] = tested on: Bacillus subtilis IFO 3336
[11] = tested on: Escherichia coli IFO 3301
[12] = tested on: Trypanosoma brucei brucei GUT Tat3.1
[13] = tested on: Trichophyton mentagrophytes IFO 5466
[14] = tested on: Staphylococcus aureus KO-4
Pseudomonas aeruginosa = tested on: Pseudomonas aeruginosa
[15] = tested on: Pseudomonas aeruginosa CCARM 2109
[16] = tested on: Staphylococcus aureus CCARM 3543
[17] = tested on: Staphylococcus aureus KCTC 1621
[18] = tested on: Pseudomonas aeruginosa CCARM 2095
[19] = tested on: Candida albicans KCTC 7965
[20] = tested on: Bacillus subtilis KCTC 3068
[21] = tested on: Staphylococcus aureus CCARM 3001
[22] = tested on: Staphylococcus epidermidis KCTC 1917
[23] = tested on: Escherichia coli KCTC 1682
[24] = tested on: Pseudomonas aeruginosa KCTC 1637
[25] = tested on: Salmonella typhimurium KCTC 1926

CC(C)C[C@H](NC(=O)[C@@H]1CSSC[C@H](NC(=O)[C@H](C)NC(=O)[C@H](C)NC(=O)[C@@H](N)CC(=O)O)C(=O)N[C@@H](C)C(=O)N[C@@H](C)C(=O)N[C@@H](Cc2cnc[nH]2)C(=O)N1)C(=O)N[C@@H](Cc1ccccc1)C(=O)N[C@@H](CCCN=C(N)N)C(N)=O [DAACAAHCLFR]
MIC [1]: ≥ 84.9 µM | MIC [2]: > 84.9 µM | MIC [3]: ≥ 84.9 µM | MIC [4]: > 84.9 µM | MIC [5]: ≥ 84.9 µM | MIC [6]: ≥ 84.9 µM | MIC [7]: > 84.9 µM | MIC (Staphylococcus aureus): > 84.9 µM | MIC [8]: ≥ 84.9 µM | MIC [9]: ≥ 84.9 µM

NC(N)=NCCC[C@H](NC(=O)[C@H](Cc1cnc[nH]1)NC(=O)[C@H](CCCN=C(N)N)NC(=O)[C@H](Cc1cnc[nH]1)NC(=O)[C@@H](N)CCCN=C(N)N)C(=O)N[C@@H](Cc1cnc[nH]1)C(=O)O [RHRHRH]
MIC [10]: ≥ 111 µM | MIC [11]: ≥ 111 µM

CC[C@H](C)[C@H](NC(=O)[C@H](CCCN=C(N)N)NC(=O)[C@H](CC(C)C)NC(=O)[C@H](CC(C)C)NC(=O)[C@H](CC(C)C)NC(=O)[C@@H](N)CCCN=C(N)N)C(=O)NCC(=O)N[C@@H](CCCN=C(N)N)C(=O)N[C@@H](CCCN=C(N)N)C(N)=O [RLLLRIGRR]
MIC [12]: ≥ 325 µM | MIC [13]: 13 µM (≈ 15 µg/mL) | MIC [14]: ≥ 521 µM | MIC (Pseudomonas aeruginosa): 347 µM (≈ 400 µg/mL)

CC(C)C[C@H](NC(=O)[C@H](Cc1c[nH]c2ccccc12)NC(=O)[C@H](CCCNC(=N)N)NC(=O)[C@H](CCCNC(=N)N)NC(=O)[C@H](Cc1c[nH]c2ccccc12)NC(=O)[C@H](CCCNC(=N)N)NC(=O)[C@H](CCCNC(=N)N)NC(=O)[C@H](Cc1c[nH]c2ccccc12)NC(=O)[C@H](CC(C)C)NC(=O)[C@@H](N)CCCNC(=N)N)C(=O)N[C@@H](CCCNC(=N)N)C(=O)O [RLWRRWRRWLR]
MIC [15]: 16 µM (≈ 27.8 µg/mL) | MIC [16]: 2 µM (≈ 3.48 µg/mL) | MIC [17]: 4 µM (≈ 6.96 µg/mL) | MIC [18]: 16 µM (≈ 27.8 µg/mL) | MIC [19]: ≥ 64 µM | MIC [20]: 4 µM (≈ 6.96 µg/mL) | MIC [21]: 8 µM (≈ 13.9 µg/mL) | MIC [22]: 2 µM (≈ 3.48 µg/mL) | MIC [23]: 8 µM (≈ 13.9 µg/mL) | MIC [24]: 8 µM (≈ 13.9 µg/mL) | MIC [25]: 2 µM (≈ 3.48 µg/mL)
